Laboratory results as given in the supplement of paper PMC10307832.

How the values were obtained:
Assay in all cases: relative viability (nuclei count vs DMSO), 5 days (fraction); higher = more cells survive
Zebularine + Palbociclib = compound: O=c1ncccn1[C@@H]1O[C@H](CO)[C@@H](O)[C@H]1O [Zebularine] + CC(=O)c1c(C)c2cnc(Nc3ccc(N4CCNCC4)cn3)nc2n(C2CCCC2)c1=O [Palbociclib] (partner 0.5 µM)
In short: (§1)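 Relative viability is defined as nuclei in treated wells over nuclei in vehicle wells. Duplicate plates were run and medians reported. Lung cancer cell lines in 1536-well plates were dosed by pin tool one day after seeding, with one drug or with a fixed anchor-drug dose plus five library-drug doses (not always all listed) in √10 steps, and nuclei were counted after 5 days.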

Zebularine + Olaparib = compound: O=c1ncccn1[C@@H]1O[C@H](CO)[C@@H](O)[C@H]1O [Zebularine] + O=C(c1cc(Cc2n[nH]c(=O)c3ccccc23)ccc1F)N1CCN(C(=O)C2CC2)CC1 [Olaparib] (partner 8 µM)
In short: as §1

Zebularine + Lapatinib = compound: O=c1ncccn1[C@@H]1O[C@H](CO)[C@@H](O)[C@H]1O [Zebularine] + CS(=O)(=O)CCNCc1ccc(-c2ccc3ncnc(Nc4ccc(OCc5cccc(F)c5)c(Cl)c4)c3c2)o1 [Lapatinib] (partner 2 µM)
In short: as §1

BI-D1870 + Tozasertib = compound: CC(C)CCN1c2nc(Nc3cc(F)c(O)c(F)c3)ncc2N(C)C(=O)C1C [BI-D1870] + Cc1cc(Nc2cc(N3CCN(C)CC3)nc(Sc3ccc(NC(=O)C4CC4)cc3)n2)n[nH]1 [Tozasertib] (partner 0.1 µM)
In short: as §1

Cell Line: UMC-11
- relative viability (Zebularine + Palbociclib; first compound 1 µM): 0.329
- relative viability (Zebularine + Palbociclib; first compound 3.162 µM): 0.315
- relative viability (Zebularine + Palbociclib; first compound 10 µM): 0.312
- relative viability (Zebularine + Palbociclib; first compound 31.62 µM): 0.344
- relative viability (Zebularine + Palbociclib; first compound 100 µM): 0.308
- relative viability (Zebularine + Olaparib; first compound 1 µM): 0.407
- relative viability (Zebularine + Olaparib; first compound 3.162 µM): 0.377
- relative viability (Zebularine + Olaparib; first compound 10 µM): 0.346
- relative viability (Zebularine + Olaparib; first compound 31.62 µM): 0.362
- relative viability (Zebularine + Olaparib; first compound 100 µM): 0.293
- relative viability (Zebularine + Lapatinib; first compound 1 µM): 1.28
- relative viability (Zebularine + Lapatinib; first compound 3.162 µM): 0.977
- relative viability (Zebularine + Lapatinib; first compound 10 µM): 0.614
- relative viability (Zebularine + Lapatinib; first compound 31.62 µM): 0.849
- relative viability (Zebularine + Lapatinib; first compound 100 µM): 0.436
- relative viability (BI-D1870 + Tozasertib; first compound 0.04 µM): 0.197
- relative viability (BI-D1870 + Tozasertib; first compound 0.1265 µM): 0.205
- relative viability (BI-D1870 + Tozasertib; first compound 0.4 µM): 0.195
- relative viability (BI-D1870 + Tozasertib; first compound 1.265 µM): 0.191
- relative viability (BI-D1870 + Tozasertib; first compound 4 µM): 0.188
